Measurements published in PMC11561197, “Computational-guided discovery of UDP-glycosyltransferases for lauryl glucoside production using engineered E. coli” (Bioresources and Bioprocessing, 2024).

Target: T1, RO3G (UDP-glycosyltransferase candidate, EIE92684.1) (Rhizopus delemar, UniProt I1CW54)
T1 construct: gene RO3G_17395; codon-optimised synthetic gene in pCDFDuet-1, expressed in E. coli BL21(DE3); no predicted signal peptide; not purified
T1 sequence (I1CW54 1-527): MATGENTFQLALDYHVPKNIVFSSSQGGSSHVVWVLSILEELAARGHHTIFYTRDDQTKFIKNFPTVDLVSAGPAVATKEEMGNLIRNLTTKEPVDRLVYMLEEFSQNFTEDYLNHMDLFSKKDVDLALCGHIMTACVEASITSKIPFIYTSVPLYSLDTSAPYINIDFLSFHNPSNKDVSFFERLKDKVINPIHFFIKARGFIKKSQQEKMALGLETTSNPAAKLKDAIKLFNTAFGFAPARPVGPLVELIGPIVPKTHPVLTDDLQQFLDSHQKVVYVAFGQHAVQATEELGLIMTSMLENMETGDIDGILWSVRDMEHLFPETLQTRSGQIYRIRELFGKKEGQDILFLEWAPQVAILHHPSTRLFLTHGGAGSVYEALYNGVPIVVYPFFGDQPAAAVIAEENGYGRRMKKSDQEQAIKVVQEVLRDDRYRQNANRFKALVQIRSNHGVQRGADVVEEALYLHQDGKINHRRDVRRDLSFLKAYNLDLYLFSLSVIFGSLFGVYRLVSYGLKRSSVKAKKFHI
Test: 1-dodecanol feeding of expressing E. coli; lauryl glucoside by HPLC-RI and LC-MS
Type: cell-based
Conditions: whole E. coli BL21(DE3), M9 with 2% glucose, 2.0 mM 1-dodecanol, 30 °C, 48 h; endogenous UDP-glucose as presumed donor; GFP strain as control

SMILES: CCCCCCCCCCCCO [1-dodecanol]
- 1-dodecanol feeding of expressing E. coli; lauryl glucoside by HPLC-RI and LC-MS: The engineered strain successfully converted 1-dodecanol to lauryl glucoside, as quantified by HPLC
